Measurements: PMC11671014 (PLOS Pathogens, 2024)
Where two headings read alike, the source gives them in different places.

How the values were obtained:
[1] = test system: Pf3D7-pfs16-CBG99 gametocytes, immature (stage II/III) and mature (stage V); test: Gametocyte killing assay (luciferase); type: cell-based; settings: Plasmodium falciparum, 48 h
Protocol: Gametocytogenesis was induced on a tightly synchronised (>97% rings) asexual parasite culture (Pf3D7-pfs16-CBG99 (kind gift from Pietro Alano), 0.5% parasitemia and 6% hematocrit) with a combination of nutrient starvation and a decrease in hematocrit, as previously described. For immature gametocytes (>90% stage II/III), cultures were exposed to 50 mM N-acetyl glucosamine (NAG) on days 1–4 to eliminate residual asexual parasites and harvested at days 5–6. For mature (>95% stage V) gametocytes, NAG treatment occurred from days 3–7 and harvest at day 13. Stage II/III and V gametocyte cultures (2 % gametocytaemia 1.5 % haematocrit, 150 μL/well) were exposed to compounds and incubated at 37°C for 48 h under hypoxic conditions, after which luciferase activity was determined with a non-lysing D-luciferin substrate (1mM in 0.1M citrate buffer, pH 5.5, 100 μL) and bioluminescence was detected with a 2 s integration time with a GloMax-Multi Detection System with Instinct software.

Dd2-B2 parasites = test: Minimum inoculum of resistance (MIR) selection; type: cell-based, Plasmodium falciparum; settings: for IC50: DD2, read-out: in-house mean IC50; for IC50 fold shift (clones): 3 x IC50
Protocol: MIR studies were conducted for ML901 and ML471 using a modified “Gate keeper assay” [34]. […] For ML901, the parasites (starting parasite inoculums of 1x10^7 or 1x10^8 in triplicate) were subjected to pressure at 3 x IC50, with recrudescence on days 12–14. […] The different pressure regimens reflect the standard protocols in the Fidock lab used at the times of analysis. Wells were monitored daily by smear during the first seven days to ensure parasite clearance, during which media was changed daily. Thereafter, cultures were screened three times weekly by flow cytometry and smearing, and the selection maintained a consistent drug pressure over 60 days. […] Whole-genome sequencing analysis identified CNVs in chromosome 8 segments, always containing the PfTyrRS locus, consistent with our earlier evidence of this as the target of ML901 [16]. Single nucleotide polymorphism (SNP) filtering was lowered to 0.5 allelic balance (AB) but yielded no point mutations in the core genome.

[2] = test system: Cam3.II^rev parasite cultures, trophozoite (25–30 h.p.i.) stage; test: 6-h pulse exposure of synchronized trophozoites, SYBR Green I growth inhibition in next cycle; type: cell-based; settings: Plasmodium falciparum, read-out: P. falciparum 6-h Trophozoite Stage IC50 (Cam3.II)
Protocol: Assessment of the killing activity of ML901 in pulsed exposure assays was performed using a modification of a previously described procedure. Briefly, cultures of Cam3.II^rev trophozoites (1.5% final hematocrit; 1.4% final parasitemia) were pre-synchronized to a 5-h window at trophozoite or schizont stage. Compounds were serially diluted in complete medium in v-bottomed microplates. Parasites were exposed to ML901 for 3 h, 6 h, 9 h or 24 h before washing 5 times with 200 μl of complete medium, then returned to culture conditions. For the no wash samples, ML901 was left in the culture until the assay point. Growth inhibition was assessed in the second cycle by labelling with the DNA-binding dye, SYBR Green I. Quantification of total DNA level reflects cytostatic effects as well as cytocidal effects. Old media (140 μl) was firstly replaced with fresh media, followed by the addition of lysis buffer (20 mM Tris, pH 7.5, 5 mM EDTA, 0.008% w/v saponin, 0.08% v/v Triton X-100) containing SYBR Green I. Plates were incubated at room temperature for 2 h and fluorescence readings were taken using a microplate reader (BMG LABTECH).

HsTyrRS = biological target: T1, HsTyrRS (Homo sapiens, UniProt P54577); test: Differential scanning fluorimetry (DSF) of HsTyrRS; type: binding; settings: for thermal stabilisation of recombinant HsTyrRS (in words): with all substrates; for HsTyrRS Tm: with sulfamate, tyrosine and tRNA, apo 49.0 ± 0.2
T1 sequence (P54577 1-528): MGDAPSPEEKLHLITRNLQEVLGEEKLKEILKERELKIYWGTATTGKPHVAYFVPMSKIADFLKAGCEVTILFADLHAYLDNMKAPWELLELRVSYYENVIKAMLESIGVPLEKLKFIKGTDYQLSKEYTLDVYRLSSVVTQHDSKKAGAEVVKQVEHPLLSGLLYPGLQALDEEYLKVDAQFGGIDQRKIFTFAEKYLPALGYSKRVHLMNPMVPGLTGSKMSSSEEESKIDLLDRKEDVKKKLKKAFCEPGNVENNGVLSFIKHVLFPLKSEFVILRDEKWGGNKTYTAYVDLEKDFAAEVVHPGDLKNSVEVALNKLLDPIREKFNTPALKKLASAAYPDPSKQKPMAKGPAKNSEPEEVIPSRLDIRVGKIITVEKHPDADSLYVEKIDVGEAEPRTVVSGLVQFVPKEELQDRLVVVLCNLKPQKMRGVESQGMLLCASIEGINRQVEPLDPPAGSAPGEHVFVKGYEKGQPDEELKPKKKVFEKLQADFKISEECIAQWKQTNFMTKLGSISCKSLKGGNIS
Protocol: The effect on ML471 and analogues on the thermal stability of TyrRS enzymes was assayed as previously described. […] SYPRO Orange (Sigma-Aldrich; 5,000X concentrate in DMSO) was added to the reaction mixture at a final concentration of 5X. 25 μL of the sample was added into each well of a 96-well qPCR plate (Applied Biosystems). The plate was sealed and analysed using StepOnePlus Real-Time PCR system (Applied Biosystems). The samples were heated from 20°C to 90°C with a 1% continuous gradient. The thermal unfolding curve was plotted as the first derivative curve of the raw fluorescence values. The melting temperature (Tm), defined as the peak of the first derivative curve, was used to assess the thermal stability of protein-ligand complexes.

[3] = read-out: Early stage gametocytes IC50
[4] = read-out: Mature stage gametocytes IC50

| Structure (SMILES) | IC50 [1, 3] | IC50 [1, 4] | IC50 (Dd2-B2 parasites; Plasmodium falciparum) | IC50 fold shift (clones) (Dd2-B2 parasites; selection with 10^7 parasites) | IC50 fold shift (clones) (Dd2-B2 parasites; selection with 10^8 parasites) | IC50 [2] | HsTyrRS binding (DSF) Delta Tm (HsTyrRS; 200 μM sulfamate, ATP, tyrosine, yeast tRNA, 37°C 4 h) | thermal stabilisation of recombinant HsTyrRS (in words) (HsTyrRS) | HsTyrRS Tm (HsTyrRS; ATP) | IC90 (Dd2-B2 parasites; Plasmodium falciparum, DD2, read-out: mean IC90) | IC50 shift (Dd2-B2 parasites; selection with 2x10^5 parasites, 10 x IC50) | ΔTm at 200 µM (HsTyrRS; 200 μM sulfamate, ATP, tyrosine, yeast tRNA, 37°C 4 h, read-out: HsTyrRS binding (DSF) Delta Tm) |
| --- | --- | --- | --- | --- | --- | --- | --- | --- | --- | --- | --- | --- |
| Nc1ncnc2c1c(OC(F)F)nn2[C@@H]1O[C@H](COS(N)(=O)=O)[C@@H](O)[C@H]1O [ML901] | 310 ± 60 nM | 1660 ± 140 nM | 2.6 ± 0.05 nM | 2-3 x IC50 | 3-6 x IC50 | 135 ± 14 nM | 0.4 ± 0.1 °C | not stabilised | 49.4 ± 0.1 °C |  |  |  |
| CC(C)c1nn([C@@H]2O[C@H](COS(N)(=O)=O)[C@@H](O)[C@H]2O)c2ncnc(N)c12 [ML471, ((2R,3S,4R,5R)-5-(4-amino-3-isopropyl-1H-pyrazolo[3,4-d]pyrimidin-1-yl)-3,4-dihydroxytetrahydrofuran-2-yl)methyl sulfamate] | 112 nM | 392 nM | 1.45 nM |  |  | 29.1 ± 3 nM |  | not stabilised | 49.0 ± 0.2 °C | 1.99 nM | 9-16 xIC50 | 0.06 ± 0.04 °C |
| Nc1ncnc2c1c(C(F)(F)F)nn2[C@@H]1O[C@H](COS(N)(=O)=O)[C@@H](O)[C@H]1O [ML107] |  |  |  |  |  | 150 ± 33 nM |  |  |  |  |  |  |
| CC(C)Oc1nn([C@@H]2O[C@H](COS(N)(=O)=O)[C@@H](O)[C@H]2O)c2ncnc(N)c12 [ML723] |  |  |  |  |  | 220 ± 31 nM |  |  |  |  |  |  |
